The source of these data is patent US8637525B2, “Compounds for the reduction of beta-amyloid production” (Bristol-Myers Squibb Company, priority 2009, dated 2014).

The test system of this assay is Aβ1-42 production. The experiment in a line: Cellular assay for inhibition of Aβ1-42 production (H4 APP751 SWE clone 8.20). The assay is classed as cell-based. The settings on record: H4 APP751 SWE clone 8.20 cells, 19 h incubation. On the procedure: Cellular Assays for Inhibition of Aβ1-40 and Aβ1-42 Production
H4 cells stably transfected with APP751 containing the Swedish mutation (H4 APP751 SWE clone 8.20, developed at BMS) were maintained in log phase through twice weekly passage at a 1:20 split. […] Following incubation for 19 h in 5% CO2 at 37° C., plates were briefly centrifuged (1000 rpm, 5 min). A 10 μl aliquot from each well was transferred to a second assay plate (Costar 3709) for Aβ40 measurements. Antibody cocktails were freshly prepared by dilution into 40 mM Tris-HCl (pH 7.4) with 0.2% BSA and added to assay plates. For Aβ42 measurements, antibodies specific for the Aβ42 neoepitope (565, developed at BMS; conjugated to the Wallac reagent (Perkin Elmer)) and the N-terminal sequence of Aβ peptide (26D6, developed at SIBIA; conjugated to APC (Perkin Elmer)) were mixed and 20 μl of the mixture was added to each well of the incubated cell plate yielding a final concentration of 0.8 ng/well 565 and 75 ng/well 26D6. For the Aβ40 measurements, antibodies specific for the Aβ40 neoepitope (TSD, developed at BMS; conjugated to the Wallac reagent (Perkin Elmer)) and 26D6 as described above were mixed and 20 μl of the mixture was added to the 10 μl aliquots which had been removed previously from the cell plate yielding a final concentration of 1.6 ng/well TSD and 17.5 ng/well 26D6. Assay plates containing antibodies were sealed with aluminum foil and incubated overnight at 4° C. Signal was determined using a Viewlux counter (Perkin Elmer) and IC50 values determined using curve fitting in CurveMaster (Excel Fit based).

The mark [1] stands for this setting: 19 h, class symbols, read-out: Activity Rating (Aβ42 cellular IC50).
[2] abbreviates: class symbols, read-out: Activity Rating (Aβ42 cellular IC50).
The mark [3] stands for this setting: 19 h, read-out: Activity Rating (Aβ42 cellular IC50), numeric value.

Each structure is given as a SMILES string. Counter-ions that a name gives are not always drawn. Like-named read-outs stand apart in the source and are kept apart here.

Usually IC50 stands for the midpoint of a concentration-inhibition curve. `COc1cc(Nc2nc3c(c(N4CCN(C)CC4)n2)CCC3c2ccc(F)cc2)ccc1-n1cnc(Cl)c1` (centres unmarked) [Example 30, N-(4-(4-chloro-1H-imidazol-1-yl)-3-methoxyphenyl)-7-(4-fluorophenyl)-4-(4-methylpiperazin-1-yl)-6,7-dihydro-5H-cyclopenta[d]pyrimidin-2-amine]: the IC50 under setting [1] lay in the range of 10 to 100 nM.
As for `COc1cc(Nc2nc3c(c(N(C)C)n2)COCC3c2ccccc2)ccc1-n1cnc(Cl)c1` (single isomer, unassigned) [Example 53B, N^2-(4-(4-Chloro-1H-imidazol-1-yl)-3-methoxyphenyl)-N^4,N^4-dimethyl-8-phenyl-7,8-dihydro-5H-pyrano[4,3-d]pyrimidine-2,4-diamine], the IC50 under setting [2] lay in the range of 10 to 100 nM.
With `COc1cc(Nc2nc3c(c(N4CC(C)(F)C4)n2)CCC3c2ccc(F)cc2)ccc1-n1cnc(Cl)c1` (centres unmarked) [Example 190, N-(4-(4-chloro-1H-imidazol-1-yl)-3-methoxyphenyl)-4-(3-fluoro-3-methylazetidin-1-yl)-7-(4-fluorophenyl)-6,7-dihydro-5H-cyclopenta[d]pyrimidin-2-amine], the IC50 under setting [3] came out at 37 nM.
The same measure, in the same setting: the result for `COc1cc(Nc2nc(N[C@H](C)C3CC3)c3c(n2)C(c2ccc(C(F)(F)F)cc2)COC3)ccc1-n1cnc(Cl)c1` (stereo partly drawn) [Example 117, N2-(4-(4-chloro-1H-imidazol-1-yl)-3-methoxyphenyl)-N4-((R)-1-cyclopropylethyl)-8-(4-(trifluoromethyl)phenyl)-7,8-dihydro-5H-pyrano[4,3-d]pyrimidine-2,4-diamine, TFA] reads 45 nM.
Turning to `CNc1nc(Nc2ccc(-n3ncnc3C)c(F)c2)nc2c1CCC2c1ccc(F)cc1` (centres unmarked) [Example 26, N^2-(3-fluoro-4-(5-methyl-1H-1,2,4-triazol-1-yl)phenyl)-7-(4-fluorophenyl)-N^4-methyl-6,7-dihydro-5H-cyclopenta[d]pyrimidine-2,4-diamine], the IC50 under setting [2] is 1.5 to 9.9 nM.
As to `CNc1nc(Nc2ccc3occc3c2)nc2c1CCC2c1ccccc1` (centres unmarked) [Example 250, N2-(benzofuran-5-yl)-N4-methyl-7-phenyl-6,7-dihydro-5H-cyclopenta[d]pyrimidine-2,4-diamine], under setting [1], the IC50 was greater than 1000 nM.
Same read-out and setting: the same measure for `CCN(C)c1nc(Nc2ccc(-n3cnc(Cl)c3)c(OC)c2)nc2c1CCOC2c1ccc(F)cc1` (centres unmarked) [Example 89, N2-(4-(4-chloro-1H-imidazol-1-yl)-3-methoxyphenyl)-N4-ethyl-8-(4-fluorophenyl)-N4-methyl-6,8-dihydro-5H-pyrano[3,4-d]pyrimidine-2,4-diamine]: 10 to 100 nM.
`CNc1nc(Nc2ccc(C#N)cc2)nc2c1CN(S(C)(=O)=O)CC2c1ccc(F)cc1` (centres unmarked) [Example 207, 4-(8-(4-fluorophenyl)-4-(methylamino)-6-(methylsulfonyl)-5,6,7,8-tetrahydropyrido[4,3-d]pyrimidin-2-ylamino)benzonitrile]: the IC50 under setting [1] lay in the range of 100 to 1000 nM.
As for `COc1cc(Nc2nc3c(c(N4CC[C@H](F)C4)n2)COC3c2ccc(F)cc2)ccc1-n1cnc(Cl)c1` (single isomer, unassigned) [Example 77], under setting [2], the IC50 lay in the range of 10 to 100 nM.
Take `CCNc1nc(Nc2ccc(-n3ncnc3C)c(F)c2)nc2c1COCC2c1ccc(C(F)(F)F)cc1` (racemic) [Example 119, N4-ethyl-N2-(3-fluoro-4-(5-methyl-1H-1,2,4-triazol-1-yl)phenyl)-8-(4-(trifluoromethyl)phenyl)-7,8-dihydro-5H-pyrano[4,3-d]pyrimidine-2,4-diamine, TFA]: the half-inhibitory concentration (IC50) under setting [1] fell in the range of 10 to 100 nM.
Same read-out and setting: the same measure for `CCNc1nc(Nc2ccc(-n3cnc(Cl)c3)c(OC)c2)nc2c1CN(C)CC2c1ccccc1` (centres unmarked) [Example 151, N2-(4-(4-chloro-1H-imidazol-1-yl)-3-methoxyphenyl)-N4-ethyl-6-methyl-8-phenyl-5,6,7,8-tetrahydropyrido[4,3-d]pyrimidine-2,4-diamine]: 1.5 to 9.9 nM.
Consider `COc1cc(Nc2nc3c(c(N4CCC(F)C4)n2)CCOC3c2ccc(F)cc2)ccc1-n1cnc(Cl)c1` (stereo in doubt) [Example 91A, N-(4-(4-chloro-1H-imidazol-1-yl)-3-methoxyphenyl)-8-(4-fluorophenyl)-4-((S)-3-fluoropyrrolidin-1-yl)-6,8-dihydro-5H-pyrano[3,4-d]pyrimidin-2-amine], for which, under setting [2], the IC50 lay within 1.5 to 9.9 nM.
In the case of `COc1cc(Nc2nc3c(c(N4CCC4)n2)CCC3c2ccccc2)ccc1-n1cnc(Cl)c1` (centres unmarked) [Example 6, 4-(Azetidin-1-yl)-N-(4-(4-chloro-1H-imidazol-1-yl)-3-methoxyphenyl)-7-phenyl-6,7-dihydro-5H-cyclopenta[d]pyrimidin-2-amine], the IC50 under setting [1] lay within 10 to 100 nM.
As for `CCNc1nc(Nc2ccc(-n3cnc(Cl)c3)c(OC)c2)nc2c1COC2c1ccc(F)cc1` (single isomer, unassigned) [Example 75B, N^2-(4-(4-chloro-1H-imidazol-1-yl)-3-methoxyphenyl)-N^4-ethyl-7-(4-fluorophenyl)-5,7-dihydrofuro[3,4-d]pyrimidine-2,4-diamine], under setting [2], the IC50 lay in the range of 10 to 100 nM.
Turning to `CNc1nc(Nc2ccc(-n3cnc(C)n3)c(OC)c2)nc2c1CC[C@H]2c1cccc(OC)c1` (single isomer, unassigned) [Example 272A], under setting [1], the IC50 was 10 to 100 nM.
The same measure, in the same setting: the same measure for `COc1cc(Nc2nc3c(c(N4CC5(C4)OCCO5)n2)CCC3c2ccccc2)ccc1-n1cnc(Cl)c1` (centres unmarked) [Example 184, N-(4-(4-chloro-1H-imidazol-1-yl)-3-methoxyphenyl)-7-phenyl-4-(5,8-dioxa-2-azaspiro[3.4]octan-2-yl)-6,7-dihydro-5H-cyclopenta[d]pyrimidin-2-amine]: 10 to 100 nM.
Take `COc1cc(Nc2nc3c(c(N4CC(C)(OC)C4)n2)CCC3c2ccc(F)cc2)ccc1-n1cnc(C)n1` (centres unmarked) [Example 192A, 7-(4-fluorophenyl)-4-(3-methoxy-3-methylazetidin-1-yl)-N-(3-methoxy-4-(3-methyl-1H-1,2,4-triazol-1-yl)phenyl)-6,7-dihydro-5H-cyclopenta[d]pyrimidin-2-amine]: under “read-out: Activity Rating (Aβ42 cellular IC50), numeric value”, the IC50 turned out to be 170 nM.
Turning to `CNc1nc(Nc2ccc(-n3cnc(Cl)c3)c(OC)c2)nc2c1CCC2c1ccccc1` (single isomer, unassigned) [Example 7B, N^2-(4-(4-chloro-1H-imidazol-1-yl)-3-methoxyphenyl)-N^4-methyl-7-phenyl-6,7-dihydro-5H-cyclopenta[d]pyrimidine-2,4-diamine], the IC50 under setting [2] is 10 to 100 nM.
Regarding `COc1cc(Nc2nc(NC(C)C)c3c(n2)C(c2ccccc2)CC3)ccc1-n1cnc(Cl)c1` (centres unmarked) [Example 10, N2-(4-(4-chloro-1H-imidazol-1-yl)-3-methoxyphenyl)-N4-isopropyl-7-phenyl-6,7-dihydro-5H-cyclopenta[d]pyrimidine-2,4-diamine], under setting [1], the IC50 lay in the range of 1.5 to 9.9 nM.
Same read-out and setting: the same measure for `CNc1nc(Nc2ccc(-n3cnc(C)c3)c(OC)c2)nc2c1COCC2c1ccc(Cl)cc1` (centres unmarked) [Example 70, 8-(4-chlorophenyl)-N^2-(3-methoxy-4-(4-methyl-1H-imidazol-1-yl)phenyl)-N^4-methyl-7,8-dihydro-5H-pyrano[4,3-d]pyrimidine-2,4-diamine]: 1.5 to 9.9 nM.
Same read-out and setting: the result for `CNc1nc(Nc2ccc(CC#N)cc2)nc2c1CCC2c1ccccc1` (centres unmarked) [Example 231, 2-(4-(4-(methylamino)-7-phenyl-6,7-dihydro-5H-cyclopenta[d]pyrimidin-2-ylamino)phenyl)acetonitrile] reads 100 to 1000 nM.
On the same count and under the same terms, the same measure for `COc1cc(Nc2nc3c(c(N4CC[C@H](F)C4)n2)CCC3c2ccc(F)cc2)ccc1-n1cnc(Cl)c1` (single isomer, unassigned) [Example 37]: 1.5 to 9.9 nM.
Turning to `CCC1CCCN1c1nc(Nc2ccc(-n3cnc(Cl)c3)c(OC)c2)nc2c1CCC2c1ccc(F)cc1` (single isomer, unassigned) [Example 23A, N-(4-(4-chloro-1H-imidazol-1-yl)-3-methoxyphenyl)-4-(2-ethylpyrrolidin-1-yl)-7-(4-fluorophenyl)-6,7-dihydro-5H-cyclopenta[d]pyrimidin-2-amine], under setting [2], the IC50 was 10 to 100 nM.
On to `CCNc1nc(Nc2ccc(-n3cnc(Cl)c3)c(OC)c2)nc2c1COC2c1ccc(F)cc1` (centres unmarked) [Example 75, N^2-(4-(4-chloro-1H-imidazol-1-yl)-3-methoxyphenyl)-N^4-ethyl-7-(4-fluorophenyl)-5,7-dihydrofuro[3,4-d]pyrimidine-2,4-diamine], for which the IC50 under setting [1] fell in the range of 10 to 100 nM.
As to `CNc1nc(Nc2ccc(-n3cnc(Cl)c3)c(OC)c2)nc2c1/C(=N/OC)CC2c1ccccc1` (centres unmarked) [Example 201B, (E)-2-(4-(4-chloro-1H-imidazol-1-yl)-3-methoxyphenylamino)-4-(methylamino)-7-phenyl-6,7-dihydro-5H-cyclopenta[d]pyrimidin-5-one O-methyl oxime], under setting [1], the IC50 is 10 to 100 nM.
Consider `C=CCC1(c2ccccc2)CCc2c(NCC)nc(Nc3ccc(-n4cnc(Cl)c4)c(OC)c3)nc21` (centres unmarked) [Example 111, N2-(4-(4-chloro-1H-imidazol-1-yl)-3-methoxyphenyl)-N4-ethyl-7-allyl-7-phenyl-6,7-dihydro-5H-cyclopenta[d]pyrimidine-2,4-diamine], for which, under setting [3], the IC50 was 35 nM.
